Source: patent publication US20110182850A1, “ORGANIC COMPOUNDS AND THEIR USES” (priority 2009, published 2011)
Read-outs that look alike come from different tables or passages of the source.

Biological target: T1, HCV NS3-4A serine protease (full-length NS3-4A protein, genotype 1a, strain HCV-1) (Hepatitis C virus genotype 1a, UniProt P26664)
T1 construct: using the full-length NS3-4A protein (genotype 1a, strain HCV-1)
Assay: HCV NS3-4A protease assay
Type: biochemical
Experimental: The inhibitory activity of certain compounds of Table A against HCV NS3-4A serine protease is determined in a homogenous assay using the full-length NS3-4A protein (genotype 1a, strain HCV-1) and a commercially available internally-quenched fluorogenic peptide substrate as described by Taliani, M., et al. 1996 Anal. Biochem. 240:60-67, which is incorporated by reference in its entirety.

T1 sequence (P26664 1658-1711): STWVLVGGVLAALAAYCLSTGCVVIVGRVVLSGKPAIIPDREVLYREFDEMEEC
T1 sequence (P26664 1027-1657): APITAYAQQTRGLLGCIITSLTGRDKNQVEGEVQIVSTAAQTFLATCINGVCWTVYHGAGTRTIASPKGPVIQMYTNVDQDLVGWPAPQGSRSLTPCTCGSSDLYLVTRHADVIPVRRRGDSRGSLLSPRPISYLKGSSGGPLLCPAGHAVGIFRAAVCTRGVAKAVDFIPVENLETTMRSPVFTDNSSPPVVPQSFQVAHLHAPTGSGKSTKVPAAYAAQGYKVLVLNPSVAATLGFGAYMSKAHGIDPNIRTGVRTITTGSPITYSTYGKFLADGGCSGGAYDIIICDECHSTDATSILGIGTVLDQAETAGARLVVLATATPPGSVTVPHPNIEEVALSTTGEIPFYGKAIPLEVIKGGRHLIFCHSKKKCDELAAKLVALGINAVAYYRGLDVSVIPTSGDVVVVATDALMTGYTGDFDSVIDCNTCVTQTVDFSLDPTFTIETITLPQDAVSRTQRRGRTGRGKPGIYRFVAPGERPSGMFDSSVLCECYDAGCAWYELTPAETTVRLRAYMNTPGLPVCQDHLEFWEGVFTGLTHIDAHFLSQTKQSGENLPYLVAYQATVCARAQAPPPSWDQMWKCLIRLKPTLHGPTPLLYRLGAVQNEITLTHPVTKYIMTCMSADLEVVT

IC50 (read-out: Protease IC50) | SMILES | IC50 (Protease IC50)
– | C=C[C@@H]1C[C@]1(NC(=O)[C@@H]1C[C@@]2(CN1C(=O)[C@@H](NC(=O)[C@@H](NC(=O)N(C)C)C(C)(C)C)C(C)(C)C)C(C)(C)C21CCC1)C(=O)NS(=O)(=O)C1CC1 [Compound 56, (5R,8S)-N-{(1R,2S)-1-[(cyclopropylsulfonyl)carba-moyl]-2-vinylcyclopropyl}-7-[(2S)-2-({(2S)-2-[(dimethylcarbamoyl)amino]-3,3-dimethylbutanoyl}amino)-3,3-dimethylbutanoyl]-10,10-dimethyl-7-azadispiro[3.0.4.1]decane-8-carboxamide] | 50 nM
400 nM | C=C[C@@H]1C[C@]1(NC(=O)[C@@H]1C[C@@]2(CN1C(=O)[C@@H](NC(=O)[C@@H](NS(=O)(=O)C(C)C)C(C)(C)C)C(C)(C)C)C(C)(C)C21CCC1)C(=O)NS(=O)(=O)C1CC1 [Compound 58, (5R,8S)-N-{(1R,2S)-1-[(cyclopropylsulfonyl)carba-moyl]-2-vinylcyclopropyl}-7-[(2S)-2-({(2S)-2-[(isopropylsulfonyl)amino]-3,3-dimethylbutanoyl}amino)-3,3-dimethylbutanoyl]-10,10-dimethyl-7-azadispiro[3.0.4.1]decane-8-carboxamide] | –
400 nM | C=C[C@@H]1C[C@]1(NC(=O)[C@@H]1C[C@@]2(CN1C(=O)[C@@H](NC(=O)c1coc(CN(C)C)n1)C(C)(C)C)C(C)(C)C21CCC1)C(=O)NS(=O)(=O)C1CC1 [Compound 59, (5R,8S)-N-{(1R,2S)-1-[(cyclopropylsulfonyl)carba-moyl]-2-vinylcyclopropyl}-7-{(2S)-2-[({2-[(dimethylamino)methyl]-1,3-oxazol-4-yl}carbonyl)amino]-3,3-dimethylbutanoyl}-10,10-dimethyl-7-azadispiro[3.0.4.1]decane-8-carboxamide] | –
200 nM | C=C[C@@H]1C[C@]1(NC(=O)[C@@H]1C[C@@]2(CN1C(=O)[C@@H](NC(=O)[C@@H](CC(=O)N1CCCCC1)C(C)(C)C)C(C)(C)C)C(C)(C)C21CCC1)C(=O)NS(=O)(=O)C1CC1 [Compound 60, (5R,8S)-N-{(1R,2S)-1-[(cyclopropylsulfonyl)carba-moyl]-2-vinylcyclopropyl}-7-[(2S)-2-{[(2S)-3,3-dimethyl-2-(2-oxo-2-piperidin-1-ylethyl)butanoyl]amino}-3,3-dimethylbutanoyl]-10,10-dimethyl-7-azadispiro[3.0.4.1]decane-8-carboxamide] | –
– | C=C[C@@H]1C[C@]1(NC(=O)[C@@H]1C[C@@]2(CN1C(=O)[C@@H](NC(=O)[C@@H](NC(=O)[C@@H]1CCCCN1C(C)C)C1CCCCC1)C(C)(C)C)C(C)(C)C21CCC1)C(=O)NS(=O)(=O)c1ccccc1 [Compound 61, (5R,8S)-7-[(2S)-2-{[(2S)-2-cyclohexyl-2-({[(2S)-1-isopropylpiperidin-2-yl]carbonyl}amino)acetyl]amino}-3,3-dimethylbutanoyl]-10,10-dimethyl-N-{(1R,2S)-1-[(phenylsulfonyl)carbamoyl]-2-vinylcyclopropyl}-7-azadispiro[3.0.4.1]decane-8-carboxamide] | 1.5 nM
– | C=C[C@@H]1C[C@]1(NC(=O)[C@@H]1C[C@@]2(CN1C(=O)[C@@H](NC(=O)[C@@H](NC(=O)[C@@H]1CCCN1C(C)C)C1CCCCC1)C(C)(C)C)C(C)(C)C21CCC1)C(=O)NS(=O)(=O)c1ccccc1 [Compound 62, (5R,8S)-7-[(2S)-2-{[(2S)-2-cyclohexyl-2-({[(2S)-1-isopropylpyrrolidin-2-yl]carbonyl}amino)acetyl]amino}-3,3-dimethylbutanoyl]-10,10-dimethyl-N-{(1R,2S)-1-[(phenylsulfonyl)carbamoyl]-2-vinylcyclopropyl}-7-azadispiro[3.0.4.1]decane-8-carboxamide] | 0.7 nM
– | C=C[C@@H]1C[C@]1(NC(=O)[C@@H]1C[C@@]2(CN1C(=O)[C@@H](NC(=O)[C@@H](NC(=O)c1cnccn1)C1CCCCC1)C(C)(C)C)C(C)(C)C21CCC1)C(=O)NS(=O)(=O)C1(C)CC1 [Compound 64, (5R,8S)-7-[(2S)-2-({(2S)-2-cyclohexyl-2-[(pyrazin-2-ylcarbonyl)amino]acetyl}amino)-3,3-dimethylbutanoyl]-10,10-dimethyl-N-[(1R,2S)-1-{[(1-methylcyclopropyl)sulfonyl]carbamoyl}-2-vinylcyclopropyl]-7-azadispiro[3.0.4.1]decane-8-carboxamide] | 1.5 nM
70 nM | C=C[C@@H]1C[C@]1(NC(=O)[C@@H]1C[C@@]2(CN1C(=O)[C@@H](NC(=O)[C@@H](CC(=O)N(C)C)C(C)(C)C)C(C)(C)C)C(C)(C)C21CCC1)C(=O)NS(=O)(=O)C1CC1 [Compound 65, (2S)-2-tert-butyl-N1-[(1S)-1-{[(5R,8S)-8-({(1R,2S)-1-[(cyclopropylsulfonyl)carba-moyl]-2-vinylcyclopropyl}carbamoyl)-10,10-dimethyl-7-azadispiro[3.0.4.1]dec-7-yl]carbonyl}-2,2-dimethylpropyl]-N4,N4-dimethylsuccinamide] | –
– | C=C[C@@H]1C[C@]1(NC(=O)[C@@H]1C[C@@]2(CN1C(=O)[C@@H](NC(=O)[C@@H](NC(=O)[C@@H]1CCCCN1C(C)C)C1CCCCC1)C(C)(C)C)C(C)(C)C21CCC1)C(=O)NS(=O)(=O)C1(CC)CC1 [Compound 66, (5R,8S)-7-[(2S)-2-{[(2S)-2-cyclohexyl-2-({[(2S)-1-isopropylpiperidin-2-yl]carbonyl}amino)acetyl]amino}-3,3-dimethylbutanoyl]-N-[(1R,2S)-1-{[(1-ethylcyclopropyl)sulfonyl]carbamoyl}-2-vinylcyclopropyl]-10,10-dimethyl-7-azadispiro[3.0.4.1]decane-8-carboxamide] | 1.8 nM
– | C=C[C@@H]1C[C@]1(NC(=O)[C@@H]1C[C@@]2(CN1C(=O)[C@@H](NC(=O)[C@@H](NC(=O)[C@@H]1CCCN1C(C)C)C1CCCCC1)C(C)(C)C)C(C)(C)C21CCC1)C(=O)NS(=O)(=O)C1(C)CC1 [Compound 72, (5R,8S)-7-[(2S)-2-{[(2S)-2-cyclohexyl-2-({[(2S)-1-isopropylpyrrolidin-2-yl]carbonyl}amino)acetyl]amino}-3,3-dimethylbutanoyl]-10,10-dimethyl-N-[(1R,2S)-1-{[(1-methylcyclopropyl)sulfonyl]carbamoyl}-2-vinylcyclopropyl]-7-azadispiro[3.0.4.1]decane-8-carboxamide] | 2 nM
– | C=C[C@@H]1C[C@]1(NC(=O)[C@@H]1C[C@@]2(CN1C(=O)[C@@H](NC(=O)[C@@H](NC(=O)[C@@H]1CCCCN1CC)C1CCCCC1)C(C)(C)C)C(C)(C)C21CCC1)C(=O)NS(=O)(=O)C1(C)CC1 [Compound 73, (5R,8S)-7-[(2S)-2-{[(2S)-2-cyclohexyl-2-({[(2S)-1-ethylpiperidin-2-yl]carbonyl}amino)acetyl]amino}-3,3-dimethylbutanoyl]-10,10-dimethyl-N-[(1R,2S)-1-{[(1-methylcyclopropyl)sulfonyl]carbamoyl}-2-vinylcyclopropyl]-7-azadispiro[3.0.4.1]decane-8-carboxamide] | 3 nM
– | C=C[C@@H]1C[C@]1(NC(=O)[C@@H]1C[C@@]2(CN1C(=O)[C@@H](NC(=O)[C@@H](NC(=O)[C@@H]1CCCCN1C(C)C)C1CCCCC1)C(C)(C)C)C(C)(C)C21CCC1)C(=O)NS(=O)(=O)C(F)(F)F [Compound 78, (5R,8S)-7-[(2S)-2-{[(2S)-2-cyclohexyl-2-({[(2S)-1-isopropylpiperidin-2-yl]carbonyl}amino)acetyl]amino}-3,3-dimethylbutanoyl]-10,10-dimethyl-N-[(1R,2S)-1-{[(trifluoromethyl)sulfonyl]carbamoyl}-2-vinylcyclopropyl]-7-azadispiro[3.0.4.1]decane-8-carboxamide] | 2.5 nM
– | C=C[C@@H]1C[C@]1(NC(=O)[C@@H]1C[C@@]2(CN1C(=O)[C@@H](NC(=O)[C@@H](NC(=O)[C@@H]1CCCCN1CC)C1CCCCC1)C(C)(C)C)C(C)(C)C21CCC1)C(=O)NS(=O)(=O)C(F)(F)F [Compound 79, (5R,8S)-7-[(2S)-2-{[(2S)-2-cyclohexyl-2-({[(2S)-1-ethylpiperidin-2-yl]carbonyl}amino)acetyl]amino}-3,3-dimethylbutanoyl]-10,10-dimethyl-N-[(1R,2S)-1-{[(trifluoromethyl)sulfonyl]carbamoyl}-2-vinylcyclopropyl]-7-azadispiro[3.0.4.1]decane-8-carboxamide] | 2 nM
– | C=C[C@@H]1C[C@]1(NC(=O)[C@@H]1C[C@@]2(CN1C(=O)[C@@H](NC(=O)[C@@H](NC(=O)[C@@H]1CCCCN1C(C)C)C1CCCCC1)C(C)(C)C)C(C)(C)C21CCC1)C(=O)NS(=O)(=O)C1CCCC1 [Compound 80, (5R,8S)-7-[(2S)-2-{[(2S)-2-cyclohexyl-2-({[(2S)-1-isopropylpiperidin-2-yl]carbonyl}amino)acetyl]amino}-3,3-dimethylbutanoyl]-N-{(1R,2S)-1-[(cyclopentylsulfonyl)carbamoyl]-2-vinylcyclopropyl}-10,10-dimethyl-7-azadispiro[3.0.4.1]decane-8-carboxamide] | 10 nM
– | CC(C)N1CCCC[C@H]1C(=O)N[C@H](C(=O)N[C@H](C(=O)N1C[C@]2(C[C@H]1C(=O)NC1(C(=O)NS(=O)(=O)C3CC3)CCCC1)C(C)(C)C21CCC1)C(C)(C)C)C1CCCCC1 [Compound 84, (5R,8S)-7-[(2S)-2-{[(2S)-2-cyclohexyl-2-({[(2S)-1-isopropylpiperidin-2-yl]carbonyl}amino)acetyl]amino}-3,3-dimethylbutanoyl]-N-{1-[(cyclopropylsulfonyl)carba-moyl]cyclopentyl}-10,10-dimethyl-7-azadispiro[3.0.4.1]decane-8-carboxamide] | 100 nM
